Results taken from patent US10681909B2, “Herbicidal triazoles” (FMC Corporation, priority 2014, dated 2020).

Assays:
[1] = tested on: blackgrass; assay: Test C postemergence; type: in vivo, Alopecurus myosuroides
Method in brief: (§1)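 Preemergence: seeds sown in loam soil–sand blend and treated with test chemicals formulated in a non-phytotoxic solvent mixture containing a surfactant. Postemergence: plants grown in peat moss/vermiculite-based medium and sprayed with the same formulation at 2 to 18 cm height (1- to 4-leaf stage).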

[2] = tested on: pigweed; assay: Test C postemergence; type: in vivo, Amaranthus retroflexus
Method in brief: as §1

[3] = tested on: chickweed; assay: Test C postemergence; type: in vivo, Stellaria media
Method in brief: as §1

[4] = tested on: galium; assay: Test C postemergence; type: in vivo, Galium aparine
Method in brief: as §1

[5] = tested on: ryegrass, Ital.; assay: Test D preemergence; type: in vivo, Lolium multiflorum; details: scale 0 to 100
Text: Seeds of plant species selected from bluegrass (annual bluegrass, Poa annua), blackgrass (Alopecurus myosuroides), canarygrass (Phalaris minor), chickweed (common chickweed, Stellaria media), galium (catchweed bedstraw, Galium aparine), bromegrass, down (downy bromegrass, Bromus tectorum), Russian thistle (Salsola kali), field poppy (Papaver rhoeas), field violet (Viola arvensis), foxtail, green (green foxtail, Setaria viridis), deadnettle (henbit deadnettle, Lamium amplexicaule), ryegrass, Ital. (Italian ryegrass, Lolium multiflorum), kochia (Kochia scoparia), lambsquarters (Chenopodium album), oilseed rape (Brassica napus), pigweed (Amaranthus retroflexus), chamomile (scentless chamomile, Matricaria inodora), speedwell (bird's-eye speedwell, Veronica persica), barley, spring (spring barley, Hordeum vulgare), wheat, spring (spring wheat, Triticum aestivum), buckwheat, wild (wild buckwheat, Polygonum convolvulus), wild mustard (Sinapis arvensis), oat, wild (wild oat, Avena fatua), radish, wild (wild radish, Raphanus raphanistrum), […]), barley, winter (winter barley, Hordeum vulgare), and wheat, winter (winter wheat, Triticum aestivum) were planted into a silt loam soil and treated preemergence with test chemicals formulated in a non-phytotoxic solvent mixture which included a surfactant. At the same time, these species were planted in pots containing Sunshine Redi-Earth® planting medium comprising spaghnum peat moss, vermiculite, starter nutrients and dolomitic limestone and treated with postemergence applications of the test chemicals formulated in the same manner. Plants ranged in height from 2 to 18 cm (1- to 4-leaf stage). Treated plants and controls were maintained in a controlled growth environment for 14 to 21 d after which time all species were compared to controls and visually evaluated. […] A dash (-) response means no test result.

[6] = tested on: foxtail, giant; assay: Test A preemergence; type: in vivo, Setaria faberii; details: Setaria faberi, pre-emergence, 240 h, 0 to 100 scale (0 no effect, 100 complete control), read-out: Plant response rating, Foxtail, Giant
Method in brief: (§2)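 Plant seeds in loam soil blended with sand, then apply test chemical preemergence as a directed soil spray; in parallel, spray potted seedlings (one- to two-leaf, 2 to 10 cm) postemergence. Both treatments use a non-phytotoxic solvent mixture with surfactant.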

[7] = tested on: lambsquarters; assay: Test C postemergence; type: in vivo, Chenopodium album
Method in brief: as §1

[8] = tested on: oat, wild; assay: Test C postemergence; type: in vivo, Avena fatua
Method in brief: as §1

[9] = tested on: rice; assay: Test B flooded paddy test; type: in vivo, Oryza sativa; details: Oryza sativa, 360 h, 125 g ai/ha, applied to paddy water at 2-leaf stage, visual rating after 13 to 15 d, scale 0 (no effect) to 100 (complete control), read-out: Plant response rating, Rice, Flood
Method in brief: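 Pots were flooded to 3 cm above the soil at treatment, and compounds were applied directly into the paddy water. That depth was held throughout. After 13 to 15 d in a greenhouse, plants were rated visually against untreated controls.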

[10] = tested on: soybean; assay: Test C postemergence; type: in vivo, Glycine max
Method in brief: as §1

[11] = tested on: johnsongrass; assay: Test C postemergence; type: in vivo, Sorghum halepense
Method in brief: as §1

[12] = tested on: pigweed; assay: Test A preemergence; type: in vivo, Amaranthus retroflexus; details: Amaranthus retroflexus, pre-emergence, 240 h, 0 to 100 scale (0 no effect, 100 complete control), read-out: Plant response rating, Pigweed
Method in brief: as §2

[13] = tested on: wheat (winter wheat); assay: Test C postemergence; type: in vivo, Triticum aestivum
Method in brief: as §1

CCc1nc(-c2ccc(C(F)(F)F)cc2)nn1Cc1ccnc(C(F)(F)F)c1 [Compound 1, 4-[[5-ethyl-3-[4-(trifluoromethyl)phenyl]-1H-1,2,4-triazol-1-yl]methyl]-2-(trifluoromethyl)pyridine]
Plant response rating (scale of 0 to 100 where 0 is no effect and 100 is complete control) ([1]; 31 g ai/ha): 5
Plant response rating (scale of 0 to 100 where 0 is no effect and 100 is complete control) ([1]; 62 g ai/ha): 5
Plant response rating (scale of 0 to 100 where 0 is no effect and 100 is complete control) ([1]; 125 g ai/ha): 15
Plant response rating (scale of 0 to 100 where 0 is no effect and 100 is complete control) ([1]; 250 g ai/ha): 35
Plant response rating (scale of 0 to 100 where 0 is no effect and 100 is complete control) ([2]; 31 g ai/ha): 50
Plant response rating (scale of 0 to 100 where 0 is no effect and 100 is complete control) ([2]; 62 g ai/ha): 98
Plant response rating (scale of 0 to 100 where 0 is no effect and 100 is complete control) ([2]; 125 g ai/ha): 98
Plant response rating (scale of 0 to 100 where 0 is no effect and 100 is complete control) ([2]; 250 g ai/ha): 100
Plant response rating (scale of 0 to 100 where 0 is no effect and 100 is complete control) ([3]; 31 g ai/ha): 60
Plant response rating (scale of 0 to 100 where 0 is no effect and 100 is complete control) ([3]; 62 g ai/ha): 85
Plant response rating (scale of 0 to 100 where 0 is no effect and 100 is complete control) ([3]; 125 g ai/ha): 85
Plant response rating (scale of 0 to 100 where 0 is no effect and 100 is complete control) ([3]; 250 g ai/ha): 95
Plant response rating (scale of 0 to 100 where 0 is no effect and 100 is complete control) ([4]; 31 g ai/ha): 80
Plant response rating (scale of 0 to 100 where 0 is no effect and 100 is complete control) ([4]; 62 g ai/ha): 80
Plant response rating (scale of 0 to 100 where 0 is no effect and 100 is complete control) ([4]; 125 g ai/ha): 90
Plant response rating (scale of 0 to 100 where 0 is no effect and 100 is complete control) ([4]; 250 g ai/ha): 90
Plant response rating: Ryegrass, Ital. ([5]; 62 g ai/ha): 25
Plant response rating: Ryegrass, Ital. ([5]; 125 g ai/ha): 30
Plant response rating: Ryegrass, Ital. ([5]; 250 g ai/ha): 35
pest or weed control at 125 g/ha ([6]; 125 g ai/ha): 100%
pest or weed control at 500 g/ha ([6]; 500 g ai/ha, approx. 10 d): 100%
Plant response rating (scale of 0 to 100 where 0 is no effect and 100 is complete control) ([7]; 31 g ai/ha): 70
Plant response rating (scale of 0 to 100 where 0 is no effect and 100 is complete control) ([7]; 62 g ai/ha): 70
Plant response rating (scale of 0 to 100 where 0 is no effect and 100 is complete control) ([7]; 125 g ai/ha): 75
Plant response rating (scale of 0 to 100 where 0 is no effect and 100 is complete control) ([7]; 250 g ai/ha): 80
Plant response rating (scale of 0 to 100 where 0 is no effect and 100 is complete control) ([8]; 31 g ai/ha): 5
Plant response rating (scale of 0 to 100 where 0 is no effect and 100 is complete control) ([8]; 62 g ai/ha): 10
Plant response rating (scale of 0 to 100 where 0 is no effect and 100 is complete control) ([8]; 125 g ai/ha): 15
Plant response rating (scale of 0 to 100 where 0 is no effect and 100 is complete control) ([8]; 250 g ai/ha): 25
plant injury at 125 g/ha [9]: 25%
Plant response rating (scale of 0 to 100 where 0 is no effect and 100 is complete control) ([10]; 31 g ai/ha): 20
Plant response rating (scale of 0 to 100 where 0 is no effect and 100 is complete control) ([10]; 62 g ai/ha): 35
Plant response rating (scale of 0 to 100 where 0 is no effect and 100 is complete control) ([10]; 125 g ai/ha): 50
Plant response rating (scale of 0 to 100 where 0 is no effect and 100 is complete control) ([10]; 250 g ai/ha): 50
Plant response rating (scale of 0 to 100 where 0 is no effect and 100 is complete control) ([11]; 31 g ai/ha): 10
Plant response rating (scale of 0 to 100 where 0 is no effect and 100 is complete control) ([11]; 62 g ai/ha): 10
Plant response rating (scale of 0 to 100 where 0 is no effect and 100 is complete control) ([11]; 125 g ai/ha): 15
Plant response rating (scale of 0 to 100 where 0 is no effect and 100 is complete control) ([11]; 250 g ai/ha): 20
pest or weed control at 125 g/ha ([12]; 125 g ai/ha): 100%
pest or weed control at 500 g/ha ([12]; 500 g ai/ha, approx. 10 d): 100%
Plant response rating (scale of 0 to 100 where 0 is no effect and 100 is complete control) ([13]; 31 g ai/ha): 10
Plant response rating (scale of 0 to 100 where 0 is no effect and 100 is complete control) ([13]; 62 g ai/ha): 10
Plant response rating (scale of 0 to 100 where 0 is no effect and 100 is complete control) ([13]; 125 g ai/ha): 15
Plant response rating (scale of 0 to 100 where 0 is no effect and 100 is complete control) ([13]; 250 g ai/ha): 20
